Targets include PIK3CA (human) (UniProt P42336); PIK3CD (Human) (UniProt O00329); PIK3CG (human) (UniProt P48736); PIK3CB (Human) (UniProt P42338).
Common to all, as to experiment: Enzyme Assay

PIK3CB (Human), sequence (P42338 whole entry, looked up): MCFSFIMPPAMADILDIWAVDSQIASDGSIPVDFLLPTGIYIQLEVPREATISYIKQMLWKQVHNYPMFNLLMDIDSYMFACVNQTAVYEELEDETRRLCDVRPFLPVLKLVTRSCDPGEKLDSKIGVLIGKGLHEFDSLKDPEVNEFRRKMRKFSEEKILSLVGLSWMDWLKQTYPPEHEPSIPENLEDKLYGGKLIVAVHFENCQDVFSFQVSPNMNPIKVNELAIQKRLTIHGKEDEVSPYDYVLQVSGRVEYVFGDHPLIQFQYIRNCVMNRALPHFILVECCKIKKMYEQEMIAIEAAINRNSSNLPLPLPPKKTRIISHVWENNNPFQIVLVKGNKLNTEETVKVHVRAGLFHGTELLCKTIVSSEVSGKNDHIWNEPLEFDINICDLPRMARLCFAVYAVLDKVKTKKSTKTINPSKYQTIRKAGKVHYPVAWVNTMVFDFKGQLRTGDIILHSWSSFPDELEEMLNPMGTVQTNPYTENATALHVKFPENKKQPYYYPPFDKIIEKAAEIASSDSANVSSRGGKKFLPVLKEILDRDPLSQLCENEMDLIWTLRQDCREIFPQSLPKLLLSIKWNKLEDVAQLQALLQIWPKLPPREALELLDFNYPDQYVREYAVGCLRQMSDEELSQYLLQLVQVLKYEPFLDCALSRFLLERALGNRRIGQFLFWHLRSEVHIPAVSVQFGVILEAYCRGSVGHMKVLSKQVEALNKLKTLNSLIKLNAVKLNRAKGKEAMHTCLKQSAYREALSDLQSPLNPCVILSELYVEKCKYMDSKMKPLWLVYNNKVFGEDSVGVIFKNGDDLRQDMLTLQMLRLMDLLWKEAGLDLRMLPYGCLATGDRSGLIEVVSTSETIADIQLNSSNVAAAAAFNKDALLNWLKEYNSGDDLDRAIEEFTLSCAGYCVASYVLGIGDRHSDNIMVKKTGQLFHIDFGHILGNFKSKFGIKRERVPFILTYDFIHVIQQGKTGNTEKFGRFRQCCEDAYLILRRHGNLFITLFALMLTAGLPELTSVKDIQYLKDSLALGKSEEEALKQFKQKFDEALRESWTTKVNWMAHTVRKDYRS
PIK3CA (human), sequence (P42336 whole entry, looked up): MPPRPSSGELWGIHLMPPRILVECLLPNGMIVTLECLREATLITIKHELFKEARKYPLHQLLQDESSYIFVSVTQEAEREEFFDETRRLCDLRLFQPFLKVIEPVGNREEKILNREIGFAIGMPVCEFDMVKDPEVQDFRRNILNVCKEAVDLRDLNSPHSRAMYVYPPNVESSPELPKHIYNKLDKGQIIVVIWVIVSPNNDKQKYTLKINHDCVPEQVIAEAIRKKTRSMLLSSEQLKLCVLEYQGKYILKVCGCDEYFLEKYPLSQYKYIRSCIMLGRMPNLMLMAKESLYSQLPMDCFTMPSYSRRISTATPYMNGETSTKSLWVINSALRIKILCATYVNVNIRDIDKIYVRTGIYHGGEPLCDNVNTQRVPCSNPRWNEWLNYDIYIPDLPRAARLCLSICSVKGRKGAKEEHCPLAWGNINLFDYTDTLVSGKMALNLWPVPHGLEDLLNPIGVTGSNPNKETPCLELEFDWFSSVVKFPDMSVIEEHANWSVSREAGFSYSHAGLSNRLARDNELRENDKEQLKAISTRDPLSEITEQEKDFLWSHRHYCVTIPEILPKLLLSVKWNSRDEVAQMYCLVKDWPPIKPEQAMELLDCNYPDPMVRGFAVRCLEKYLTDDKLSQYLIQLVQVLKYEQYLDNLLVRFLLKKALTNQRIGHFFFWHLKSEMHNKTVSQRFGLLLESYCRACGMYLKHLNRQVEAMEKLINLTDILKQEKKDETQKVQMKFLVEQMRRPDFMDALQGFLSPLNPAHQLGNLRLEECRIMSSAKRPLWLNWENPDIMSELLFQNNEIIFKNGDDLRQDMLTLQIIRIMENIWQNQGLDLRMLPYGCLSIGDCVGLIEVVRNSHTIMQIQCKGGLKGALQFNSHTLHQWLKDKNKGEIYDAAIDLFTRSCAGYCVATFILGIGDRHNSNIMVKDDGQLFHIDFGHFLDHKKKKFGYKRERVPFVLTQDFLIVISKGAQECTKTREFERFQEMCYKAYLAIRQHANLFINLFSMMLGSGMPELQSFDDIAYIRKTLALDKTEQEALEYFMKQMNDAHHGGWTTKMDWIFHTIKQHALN
PIK3CG (human), sequence (P48736 whole entry, looked up): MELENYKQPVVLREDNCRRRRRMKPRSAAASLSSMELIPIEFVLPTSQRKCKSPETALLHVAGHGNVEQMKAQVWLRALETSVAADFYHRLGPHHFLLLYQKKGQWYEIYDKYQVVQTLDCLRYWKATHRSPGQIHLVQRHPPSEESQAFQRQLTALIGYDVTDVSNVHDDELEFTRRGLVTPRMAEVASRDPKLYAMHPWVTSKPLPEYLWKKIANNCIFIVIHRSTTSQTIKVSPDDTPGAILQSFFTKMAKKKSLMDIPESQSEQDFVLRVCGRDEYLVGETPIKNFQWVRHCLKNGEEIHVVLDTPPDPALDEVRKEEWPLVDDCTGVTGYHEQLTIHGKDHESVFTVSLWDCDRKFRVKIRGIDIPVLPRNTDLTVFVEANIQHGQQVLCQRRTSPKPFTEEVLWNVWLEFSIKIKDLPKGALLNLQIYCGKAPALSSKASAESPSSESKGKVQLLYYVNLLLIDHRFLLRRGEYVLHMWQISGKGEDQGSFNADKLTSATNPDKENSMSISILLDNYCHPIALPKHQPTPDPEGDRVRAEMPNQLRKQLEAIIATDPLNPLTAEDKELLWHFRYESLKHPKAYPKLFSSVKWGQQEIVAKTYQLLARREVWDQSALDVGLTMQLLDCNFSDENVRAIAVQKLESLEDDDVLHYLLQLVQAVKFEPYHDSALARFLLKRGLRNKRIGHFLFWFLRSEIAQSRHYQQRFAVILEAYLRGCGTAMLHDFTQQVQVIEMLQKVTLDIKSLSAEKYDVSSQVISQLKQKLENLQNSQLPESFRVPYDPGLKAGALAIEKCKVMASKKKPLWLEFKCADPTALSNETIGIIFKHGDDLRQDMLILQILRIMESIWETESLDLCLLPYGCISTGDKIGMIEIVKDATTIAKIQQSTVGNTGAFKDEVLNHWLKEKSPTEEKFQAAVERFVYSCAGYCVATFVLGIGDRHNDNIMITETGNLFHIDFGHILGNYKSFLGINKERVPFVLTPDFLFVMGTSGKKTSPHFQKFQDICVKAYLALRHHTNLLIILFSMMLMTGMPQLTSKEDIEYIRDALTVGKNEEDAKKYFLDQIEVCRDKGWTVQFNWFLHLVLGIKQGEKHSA
PIK3CD (Human), sequence (O00329 whole entry, looked up): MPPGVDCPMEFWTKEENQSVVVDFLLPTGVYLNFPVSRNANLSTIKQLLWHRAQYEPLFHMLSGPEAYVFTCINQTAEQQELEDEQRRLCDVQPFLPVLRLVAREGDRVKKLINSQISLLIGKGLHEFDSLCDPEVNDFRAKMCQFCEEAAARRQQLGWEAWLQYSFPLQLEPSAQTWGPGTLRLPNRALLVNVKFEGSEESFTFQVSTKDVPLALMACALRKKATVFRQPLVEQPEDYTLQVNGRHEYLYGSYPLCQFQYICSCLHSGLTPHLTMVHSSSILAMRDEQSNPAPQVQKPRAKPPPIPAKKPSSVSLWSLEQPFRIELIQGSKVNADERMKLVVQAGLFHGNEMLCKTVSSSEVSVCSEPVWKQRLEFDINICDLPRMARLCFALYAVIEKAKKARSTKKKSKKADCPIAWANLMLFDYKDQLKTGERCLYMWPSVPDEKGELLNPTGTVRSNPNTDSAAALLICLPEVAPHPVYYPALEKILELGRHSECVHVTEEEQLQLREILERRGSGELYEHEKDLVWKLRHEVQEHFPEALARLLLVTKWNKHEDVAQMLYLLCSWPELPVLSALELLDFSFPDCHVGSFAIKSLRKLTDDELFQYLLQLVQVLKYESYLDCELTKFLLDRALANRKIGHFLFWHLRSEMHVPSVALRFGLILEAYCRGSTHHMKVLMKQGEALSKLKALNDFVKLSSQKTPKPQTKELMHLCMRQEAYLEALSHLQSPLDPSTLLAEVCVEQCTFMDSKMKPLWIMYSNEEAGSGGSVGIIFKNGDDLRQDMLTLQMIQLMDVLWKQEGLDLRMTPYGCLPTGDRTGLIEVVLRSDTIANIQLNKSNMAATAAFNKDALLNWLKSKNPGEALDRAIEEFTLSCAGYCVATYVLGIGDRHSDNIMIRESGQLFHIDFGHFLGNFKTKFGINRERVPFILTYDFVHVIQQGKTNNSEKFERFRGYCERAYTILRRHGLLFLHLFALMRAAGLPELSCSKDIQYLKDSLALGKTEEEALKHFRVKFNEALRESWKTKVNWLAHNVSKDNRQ

For orientation: IC50 means the midpoint of a concentration-inhibition curve. Low readings indicate greater potency in that assay, high ones weaker potency in that assay. Regarding `CCC(Nc1ncnc2[nH]cnc12)c1cc2cccc(C)c2c(=O)n1C1CCC1` (configuration not stated), the figures for the IC50 against PIK3CA (human), at PIK3CD (Human) and at PIK3CG (human) were > 10 µM, < 0.1 µM and 0.1 to 1 µM, respectively.
For the molecule `Cc1ccncc1-n1c(Cn2nc(I)c3c(N)ncnc32)cc2cccc(C)c2c1=O`, the IC50 on PIK3CB (Human) was > 10 µM; against PIK3CG (human), 0.1 to 1 µM.
In the same order, the values of `Cc1cccc2cc(Cn3nc(-c4cc(O)cc(F)c4)c4c(N)ncnc43)n(C(C)C)c(=O)c12` are 0.1 to 1 µM and 0.1 to 1 µM.
As to `COc1ccc(-c2nn(Cc3cc4cccc(C)c4c(=O)n3-c3ccccc3F)c3ncnc(N)c23)cc1OC`, the IC50 on PIK3CA (human) is > 10 µM; at PIK3CD (Human) it was 0.1 to 1 µM; on PIK3CG (human) it was 0.1 to 1 µM.
As for `Cc1ccccc1-n1c(Cn2nc(C=CC(=O)N3CCOCC3)c3c(N)ncnc32)cc2cccc(C)c2c1=O`, the IC50 at PIK3CA (human) is > 10 µM; against PIK3CB (Human), > 10 µM; at PIK3CD (Human), 0.1 to 1 µM; on PIK3CG (human), > 10 µM.
Take `Cc1cccc2cc(Cn3nc(-c4cn[nH]c4)c4c(N)ncnc43)n(-c3ccccc3Cl)c(=O)c12`: the IC50 against PIK3CA (human) was > 10 µM; at PIK3CB (Human), > 10 µM; against PIK3CG (human), 0.1 to 1 µM.
As for `Cc1cccc2cc(Cn3nc(C=C4CCNC4=O)c4c(N)ncnc43)n(-c3ccccc3F)c(=O)c12`, the half-maximal inhibitory concentration (IC50) on PIK3CA (human), on PIK3CB (Human) and against PIK3CG (human) was > 10 µM throughout.
As for `Cc1ccccc1-n1c(Cn2nc(-c3cccc(F)c3)c3c(N)ncnc32)cc2cccc(C)c2c1=O`, the IC50 at PIK3CA (human) was > 10 µM; against PIK3CB (Human), > 10 µM; against PIK3CG (human), 0.1 to 1 µM.
On to `Cc1cccc2cc(Cn3nc(I)c4c(N)ncnc43)n(-c3ccccc3OCCN3CCOCC3)c(=O)c12`, for which the figures for the IC50 on PIK3CA (human), against PIK3CB (Human) and against PIK3CG (human) were > 10 µM, > 10 µM and 0.1 to 1 µM, respectively.
For the molecule `Cc1cccc2cc(Cn3nc(-c4ccc(F)c(O)c4)c4c(N)ncnc43)n(-c3ccccc3F)c(=O)c12`, the IC50 is > 10 µM against PIK3CA (human), > 10 µM against PIK3CB (Human) and 0.1 to 1 µM on PIK3CG (human).
Take `Cc1ccccc1-n1c(Cn2nc(C#CCO)c3c(N)ncnc32)cc2cccc(C)c2c1=O`: the IC50 on PIK3CA (human) was > 10 µM; on PIK3CB (Human), > 10 µM; against PIK3CG (human) it was 0.1 to 1 µM.
`Cc1ccccc1-n1c(Cn2nc(-c3cnn(CCO)c3)c3c(N)ncnc32)cc2cccc(C)c2c1=O`: the IC50 against PIK3CA (human) was > 10 µM; against PIK3CB (Human), > 10 µM; at PIK3CG (human) it was 0.1 to 1 µM.
Take `CNc1ncc(Cl)c(N[C@@H](C)c2cc3cccc(C)c3c(=O)n2-c2ccccc2)n1`: the IC50 at PIK3CA (human) is > 10 µM; on PIK3CD (Human) it was 0.1 to 1 µM; against PIK3CG (human) it was 0.1 to 1 µM.
Turning to `Cc1cccc2cc(Cn3nc(-c4cccc(Cl)c4)c4c(N)ncnc43)n(-c3ccccc3F)c(=O)c12`, the IC50 at PIK3CB (Human) and at PIK3CG (human) was > 10 µM throughout.
As to `Cc1cccnc1-n1c(Cn2nc(-c3cccc(O)c3)c3c(N)ncnc32)cc2cccc(C)c2c1=O`, the figures for the IC50 at PIK3CA (human), at PIK3CB (Human) and on PIK3CG (human) were > 10 µM, > 10 µM and 0.1 to 1 µM, respectively.
For `COc1cc(-c2nn(Cc3cc4cccc(C)c4c(=O)n3-c3ccccc3F)c3ncnc(N)c23)ccc1Cl`, the IC50 is > 10 µM at PIK3CA (human), > 10 µM against PIK3CB (Human) and 0.1 to 1 µM at PIK3CG (human).
As for `CC(=O)Nc1nc2cc(-c3nn(Cc4cc5cccc(C)c5c(=O)n4-c4ccccc4)c4ncnc(N)c34)ccc2s1`, the 50% inhibitory concentration (IC50) on PIK3CA (human) is > 10 µM; at PIK3CB (Human), > 10 µM; on PIK3CD (Human), 0.1 to 1 µM; against PIK3CG (human), 0.1 to 1 µM.
As for `Cc1cccc2cc(C(C)Nc3ncnc4[nH]cnc34)n(-c3cc(F)cc(F)c3)c(=O)c12` (configuration not stated), the IC50 at PIK3CA (human) was > 10 µM; at PIK3CB (Human), > 10 µM; against PIK3CD (Human), < 0.1 µM; on PIK3CG (human), 0.1 to 1 µM.
In the case of `Cc1cccc2cc(Cn3nc(C#CCO)c4c(N)ncnc43)n(-c3ccccc3F)c(=O)c12`, the half-inhibitory concentration (IC50) at PIK3CA (human) is > 10 µM; against PIK3CB (Human), > 10 µM; at PIK3CG (human), 0.1 to 1 µM.
As for `Cc1cccc2cc(Cn3nc(C(F)F)c4c(N)ncnc43)n(-c3ccccc3)c(=O)c12`, the values for the IC50 against PIK3CA (human), against PIK3CD (Human) and against PIK3CG (human) were > 10 µM, < 0.1 µM and 0.1 to 1 µM, respectively.
In the same order, the values of `CCC(Nc1ncnc2[nH]cnc12)c1cc2cccc(C)c2c(=O)n1-c1ccccc1C` (configuration not stated) are > 10 µM, < 0.1 µM and 0.1 to 1 µM.
For the molecule `COc1ccccc1-n1c(Cn2nc(I)c3c(N)ncnc32)cc2cccc(C)c2c1=O`, the IC50 against PIK3CA (human) was > 10 µM; against PIK3CB (Human), > 10 µM; against PIK3CG (human) it was 0.1 to 1 µM.
For `Cc1cccc2cc(Cn3nc(C#C[C@@H](C)O)c4c(N)ncnc43)n(-c3ccccc3Cl)c(=O)c12`, the IC50 on PIK3CA (human) was > 10 µM; on PIK3CB (Human), > 10 µM; against PIK3CG (human) it was 0.1 to 1 µM.
In the case of `COc1ccccc1-n1c(Cn2nc(C#C[C@@H](C)O)c3c(N)ncnc32)cc2cccc(C)c2c1=O`, the IC50 was > 10 µM on PIK3CA (human), > 10 µM against PIK3CB (Human) and 0.1 to 1 µM against PIK3CG (human).
Consider `Cc1ccccc1-n1c(Cn2nc(C#CC3CC3)c3c(N)ncnc32)cc2cccc(C)c2c1=O`, for which the half-maximal inhibitory concentration (IC50) against PIK3CA (human) was > 10 µM; on PIK3CB (Human), > 10 µM; at PIK3CD (Human), 0.1 to 1 µM; against PIK3CG (human) it was 0.1 to 1 µM.
With `Cc1ccccc1-n1c(Cn2nc(C(=O)NO)c3c(N)ncnc32)cc2cccc(C)c2c1=O`, the IC50 on PIK3CA (human) is > 10 µM; at PIK3CD (Human), 0.1 to 1 µM; at PIK3CG (human), 0.1 to 1 µM.
Consider `C=C(C)c1nn(Cc2cc3cccc(C)c3c(=O)n2-c2ccccc2)c2ncnc(N)c12`, for which the IC50 is > 10 µM at PIK3CA (human), < 0.1 µM on PIK3CD (Human) and 0.1 to 1 µM at PIK3CG (human).
On to `Cc1cccc2cc(Cn3nc(-c4cnn(CCO)c4)c4c(N)ncnc43)n(-c3ccccc3F)c(=O)c12`, for which the IC50 against PIK3CA (human) was > 10 µM; against PIK3CB (Human), > 10 µM; against PIK3CG (human), 0.1 to 1 µM.
For `Cc1ccccc1-n1c(Cn2nc(I)c3c(N)nccc32)cc2cccc(C)c2c1=O`, the values for the IC50 at PIK3CA (human), on PIK3CB (Human) and against PIK3CG (human) were > 10 µM, > 10 µM and 0.1 to 1 µM, respectively.
As for `Cc1cccc2cc(Cn3nc(C#C[C@@H](C)O)c4c(N)ncnc43)n(-c3ccccc3F)c(=O)c12`, the IC50 was > 10 µM at PIK3CA (human), > 10 µM on PIK3CB (Human) and 0.1 to 1 µM on PIK3CG (human).
Take `Cc1cccc2cc([C@H](C)Nc3ncnc4[nH]nc(Cl)c34)n(C3CC3)c(=O)c12`: the half-inhibitory concentration (IC50) on PIK3CA (human) is > 10 µM; at PIK3CB (Human) it was 0.1 to 1 µM; against PIK3CD (Human), < 0.1 µM; against PIK3CG (human), 0.1 to 1 µM.
In the case of `Cc1cccc2cc(Cn3nc(-c4cccc(O)c4)c4c(N)ncnc43)n(-c3ccccc3OCCN3CCOCC3)c(=O)c12`, the IC50 against PIK3CA (human) is > 10 µM; against PIK3CB (Human), > 10 µM; against PIK3CG (human) it was 0.1 to 1 µM.
As to `Cc1cccc2cc(Cn3nc(-c4cccc(O)c4)c4c(N)ncnc43)n(-c3ccccc3F)c(=O)c12`, the 50% inhibitory concentration (IC50) is > 10 µM at PIK3CA (human), > 10 µM against PIK3CB (Human) and 0.1 to 1 µM on PIK3CG (human).
As to `Cc1ccccc1-n1c(Cn2nc(C(N)=O)c3c(N)ncnc32)cc2cccc(C)c2c1=O`, the IC50 was > 10 µM against PIK3CA (human), 0.1 to 1 µM against PIK3CD (Human) and 0.1 to 1 µM on PIK3CG (human).
As for `Cc1ccccc1-n1c(Cn2nc(-c3ccc(F)cc3)c3c(N)ncnc32)cc2cccc(C)c2c1=O`, the results for the IC50 at PIK3CA (human), against PIK3CB (Human) and at PIK3CG (human) were > 10 µM, > 10 µM and 0.1 to 1 µM, respectively.
With `Cc1cccc2cc(Cn3nc(-c4ccc(Cl)c(O)c4)c4c(N)ncnc43)n(C3CCCC3)c(=O)c12`, the IC50 against PIK3CD (Human) and on PIK3CG (human) was 0.1 to 1 µM each time.
Regarding `Cc1cccc2cc(Cn3nc(-c4cn[nH]c4)c4c(N)ncnc43)n(-c3cccc(F)c3)c(=O)c12`, the IC50 at PIK3CA (human) is > 10 µM; against PIK3CB (Human) it was > 10 µM; against PIK3CG (human), 0.1 to 1 µM.
Take `Cc1ccccc1-n1c(Cn2nc(-c3ccc(Cl)cc3)c3c(N)ncnc32)cc2cccc(C)c2c1=O`: the IC50 against PIK3CA (human) was > 10 µM; on PIK3CD (Human) it was 0.1 to 1 µM; against PIK3CG (human), 0.1 to 1 µM.
Consider `Cc1cccc2cc(Cn3nc(-c4cn[nH]c4)c4c(N)ncnc43)n(-c3ccccc3C(F)(F)F)c(=O)c12`, for which the figures for the IC50 on PIK3CA (human), at PIK3CD (Human) and against PIK3CG (human) were > 10 µM, < 0.1 µM and 0.1 to 1 µM, respectively.
Take `Cc1cccc2cc([C@H](C)Nc3nc(F)nc4[nH]cnc34)n(C3CC3)c(=O)c12`: the half-inhibitory concentration (IC50) against PIK3CB (Human) is < 0.1 µM; against PIK3CD (Human), < 0.1 µM; against PIK3CG (human) it was 0.1 to 1 µM.
Regarding `CC(Nc1ncnc2[nH]cnc12)c1cc2ccccc2c(=O)n1-c1ccccc1` (configuration not stated), the IC50 against PIK3CA (human) is > 10 µM; at PIK3CD (Human) it was < 0.1 µM; against PIK3CG (human), 0.1 to 1 µM.
Consider `Cc1cccc2cc(Cn3nc(I)c4c(N)ncnc43)n(-c3ccccc3Cl)c(=O)c12`, for which the IC50 against PIK3CB (Human) was > 10 µM; at PIK3CG (human), 0.1 to 1 µM.
Take `Cc1cccnc1-n1c(Cn2nc(-c3cc(O)cc(F)c3)c3c(N)ncnc32)cc2ccccc2c1=O`: the IC50 at PIK3CA (human) was > 10 µM; at PIK3CB (Human) it was > 10 µM; on PIK3CG (human), 0.1 to 1 µM.
For `Cc1ccccc1-n1c(Cn2nc(-c3cccc(Cl)c3)c3c(N)ncnc32)cc2cccc(C)c2c1=O`, the IC50 is > 10 µM on PIK3CA (human), > 10 µM at PIK3CB (Human) and 0.1 to 1 µM on PIK3CG (human).
Consider `Cc1ccccc1-n1c(Cn2nc(-c3cnn(C)c3)c3c(N)ncnc32)cc2cccc(C)c2c1=O`, for which the IC50 was > 10 µM on PIK3CA (human), > 10 µM at PIK3CB (Human) and 0.1 to 1 µM on PIK3CG (human).
`Cc1cccc2cc(Cn3nc(C#C[C@@H](C)O)c4c(N)ncnc43)n(C3CC3)c(=O)c12`: the IC50 against PIK3CA (human) was > 10 µM; at PIK3CB (Human) it was 0.1 to 1 µM; on PIK3CG (human), 0.1 to 1 µM.
With `C=Cc1nn(Cc2cc3cccc(C)c3c(=O)n2-c2ccccc2C)c2ncnc(N)c12`, the values for the half-inhibitory concentration (IC50) against PIK3CA (human), against PIK3CB (Human) and on PIK3CG (human) were > 10 µM, > 10 µM and 0.1 to 1 µM, respectively.
Turning to `COc1cccc(-c2nn(Cc3cc4cccc(C)c4c(=O)n3-c3ccccc3C)c3ncnc(N)c23)c1`, the half-inhibitory concentration (IC50) against PIK3CA (human) was > 10 µM; against PIK3CD (Human), 0.1 to 1 µM; on PIK3CG (human), 0.1 to 1 µM.
For the molecule `Cc1cccnc1-n1c(Cn2nc(I)c3c(N)ncnc32)cc2cccc(C)c2c1=O`, the IC50 against PIK3CA (human) was > 10 µM; against PIK3CD (Human), 0.1 to 1 µM; at PIK3CG (human), 0.1 to 1 µM.
